Our source for the binding and KM values is PMC12122380 (2025).

The structures appear in SMILES notation.

Assay [1] has as its system 155 nt (Szostak) self-biotinylating ribozyme (RNA, ribozyme) GGAGGCACCACGGCUGGAUCCGGUUUAUUAUCAUGAGCCCGACUCGGGCAGCACUGUACAUAAGCUCGGAUGCCAUAGUUUAGACACUAUGGACGUAAAGCCCAUGCUAGGCAAAGACAUUGACUGCAUGAGCGCCGCCUUGGUCAUUAGGAUCG
Kind of assay: PAGE, streptavidin blot of covalent adduct. Conditions: K+ 100 mM, Mg2+ 5 mM, 50 mM HEPES pH 7.4, 37 °C, 1 mM or 50 µM ligand.

Assay [2] concerns Pepper (RNA, aptamer) GGCGCACUGGCGCUGCGCCUUCGGGCGCCAAUCGUAGCGUGUCGGCGCC
Kind of assay: fluorescence emission. Conditions: K+ 100 mM, Mg2+ 2 mM; 50 mM MES pH 6.0; 0.5 µM RNA, 0.5 µM HBC; noncovalent.

Assay [3] shares this test system. The assay is described as follows: covalent adduct formation, fluorescence. The conditions noted are these: K+, Mg2+.
For assay [4] the test system is unchanged. The assay is described as follows: AE-HPLC of covalent adduct. Conditions: K+ 150 mM, Mg2+ 2 mM, 50 mM MES pH 6.0, 15% DMSO, 37 °C, 50 µM ligand.
In assay [5] the test system is 58 nt (Liu) self-biotinylating ribozyme (RNA, ribozyme) GGCCGCUCCAGAAGAGGGCCCCCUUGCCCGUUAUCGGGGGCUAGGCUCGAUGUCGGCC
The assay is described as follows: RP-HPLC of covalent adduct. Conditions: K+ 100 mM, Mg2+ 5 mM, 50 mM HEPES pH 7.4, 37 °C, 2.5 mM ligand.

Assay [6] shares this test system. The assay is described as follows: PAGE, streptavidin blot of covalent adduct. Conditions: K+ 100 mM, Mg2+ 5 mM, 50 mM HEPES pH 7.4, 37 °C, 1 mM ligand, 5 h.
Assay [7] relates to Pepper (RNA, aptamer) GGCGCACUGGCGCUGCGCCUUCGGGCGCCAAUCGUAGCGUGUCGGCGCC
Kind of assay: AE-HPLC, FT-ICR mass spectrometry of covalent adduct. The conditions noted are these: K+ 150 mM, Mg2+ 2 mM; covalent at G41; 50 mM MES pH 6.0, 37 °C; no crosslinking without Mg2+.

Assay [8] has as its system Tt wt preQ1 RNA aptamer (RNA, riboswitch) CUGGGUCGCAGUAACCCCAGUUAACAAAACAAG
Kind of assay: AE-HPLC alkylation kinetics, Michaelis-Menten fit. The conditions noted are these: K+ (KCl); covalent; apparent; MES pH 6.0, 37 °C.

In assay [9] the test system is Tt C15U preQ1 RNA aptamer (RNA, riboswitch) CUGGGUCGCAGUAAUCCCAGUUAACAAAACAAG
Kind of assay: AE-HPLC of covalent adduct. The conditions noted are these: K+ 100 mM, Mg2+ 2 mM, 50 mM MES pH 6.0, 37 °C, 48 h, 125 µM ligand.

For `O=C(CI)NCCNC(=O)CCCC[C@@H]1SC[C@@H]2NC(=O)N[C@@H]21`, the binding entry in assay [1] is “yes”.
Regarding `CN(CCO)c1ccc(/C=C(\C#N)c2ccc(C#N)cc2)cc1`, in assay [2], the binding result is reported as “yes”.
With `C=Cc1ccc(/C(C#N)=C/c2ccc(N(C)CCCOS(C)(=O)=O)cc2)cc1`, the binding result in [3] is on record as “yes”.
Consider `CN(CCCBr)c1ccc(/C=C(\C#N)c2ccc(C#N)cc2)cc1`, for which, in [4], the binding entry is on record as “yes”.
For `O=C1N[C@H]2[C@H](CS[C@H]2CCCCC(=O)OCCOCCCCBr)N1`, the binding result in assay [5] and in [6] was “yes” each time.
For `CN(CCCOS(C)(=O)=O)c1ccc(/C=C(\C#N)c2ccc(C#N)cc2)cc1`, the binding entry in assay [7] is “yes”.
Turning to `Nc1nc(N)c2c(CNCCCBr)c[nH]c2n1`, in [8], the KM came out at 0.162 ± 0.016 µM.
On to `Nc1nc2[nH]cc(CNCCCBr)c2c(=O)[nH]1`, for which the binding entry in assay [9] is recorded as “yes”.
